Assay results from patent publication US12576169B2, “Silicon-fluoride acceptor substituted radiopharmaceuticals and precursors thereof” (Technische Universität München, priority 2019, dated 2026).
Read-outs that look alike come from different tables or passages of the source. *1 amine or outer side, *2 acyl side, *3 side chain or, on linkers, in order; H or OH if unused. Where a SMILES comes first, the peptide text is derived from it. Side-chain parts run from the residue outwards. [ ]: non-standard residue; d: D form. The star is where a group is joined. X1 = O=C(O)CC[C@H](NC(=O)N[C@@H](CCC(=O)N[C@H](CCCN*)C(=O)O)C(=O)O)C(=O)O; Benzoyl(4-SiFtBu2) = CC(C)(C)[Si](F)(c1ccc(C(=O)*)cc1)C(C)(C)C; γGlu = O=C(O)[C@H](CCC(=O)[*:2])N[*:1]; dCit = NC(=O)NCCC[C@@H](N)C(=O)O; Suc = O=C(CCC(=O)[*:2])[*:1]; dDap = NC[C@@H](N)C(=O)O; CO = O=C([*:1])[*:2]

Key:
[1] = n-Octanol-PBS partition coefficient (logD7.4); format: physicochemical; settings: 18F-labeled ligand; n-octanol/PBS pH=7.4; mean ± SD (n = 5)
Protocol: Approx. 0.5 MBq of the ^18F-labeled SiFA-PSMA ligand were added into a test tube containing n-octanol (500 μL) and PBS (500 μL, pH=7.4). After vigorously shaking the two-phase mixture for 3 min at rt, the test tube was centrifuged at 9.000 rpm for 5 min to achieve quantitative phase separation. Finally, 150 μL of each layer were pipetted off and measured for activity using a gamma counter. After repeating the experiment for at least five times, the n-octanol-PBS partition coefficient log D7.4 was calculated according to following formula.

[2] = system: LNCaP cells; test: Internalization of 18F-labeled ligands into LNCaP cells; format: cell-based, human; settings: internalized activity at 1 h in % of reference [125I]XII; c = 0.5 nM; LNCaP cells (125.000 cells/well); 37° C., DMEM/F-12 add. 5% BSA; corrected for non-specific binding (10 μm PMPA); mean ± SD (n = 3)
Protocol: LNCaP cells were grown in DMEM/F-12 (add. 10% FCS, v/v) and maintained at 37° C. in a humidified 5% CO2 atmosphere. […] Subsequent to the removal of the culture medium, cells were washed with DMEM-F12 (add. 5% BSA, v/v, 500 μL) and left to equilibrate in DMEM-F12 (add. 5% BSA, v/v, 200 μL) at 37° C. for 15 min. Each well was treated with either DMEM-F12 (add. 5% BSA, v/v, 25 μL) or a 2-(phosphonomethyl)-pentandioic acid (PMPA) solution (100 μM in PBS, 25 μL) for blockade. Afterwards, the ^18F-labeled SiFA-PSMA ligand (5 nM in PBS, 25 μL) was added and the cells were incubated for 1 h at 37° C. The experiment was terminated by placing the 24-well plate on ice for 3 min and removal of the assay medium. Each well was rinsed with HBSS (4° C., 250 μL) and the fractions were combined with the previous assay medium, representing the amount of unbound radioligand. For removal of surface bound activity, LNCaP cells were incubated with PMPA solution (10 μM in PBS, 4° C., 250 μL) for 5 min and rinsed again with PBS (250 μL, 4° C.). The internalized activity was determined by incubation of LNCaP cells with 1 M aq. NaOH (250 μL) for at least 10 min and combination with the fraction of a subsequent wash step with 1 M aq. NaOH (200 μL). Each experiment (control and blockade) was performed in triplicate. […] All internalization studies were accompanied by reference studies using the reference compound XII (2 nM in HBSS add. 1% BSA, v/v), which were performed analogously. Data were corrected for non-specific internalization and normalized to the specific-internalization observed for the radioiodinated reference compound.

[3] = target: T1, human serum albumin (HSA) (Homo sapiens, UniProt P02768); test: Binding to HSA on a Chiralpak HSA column; format: in vitro ADME; settings: calibration with nine reference substances
T1 construct: purchased H13H-2433
T1 sequence (P02768 25-609): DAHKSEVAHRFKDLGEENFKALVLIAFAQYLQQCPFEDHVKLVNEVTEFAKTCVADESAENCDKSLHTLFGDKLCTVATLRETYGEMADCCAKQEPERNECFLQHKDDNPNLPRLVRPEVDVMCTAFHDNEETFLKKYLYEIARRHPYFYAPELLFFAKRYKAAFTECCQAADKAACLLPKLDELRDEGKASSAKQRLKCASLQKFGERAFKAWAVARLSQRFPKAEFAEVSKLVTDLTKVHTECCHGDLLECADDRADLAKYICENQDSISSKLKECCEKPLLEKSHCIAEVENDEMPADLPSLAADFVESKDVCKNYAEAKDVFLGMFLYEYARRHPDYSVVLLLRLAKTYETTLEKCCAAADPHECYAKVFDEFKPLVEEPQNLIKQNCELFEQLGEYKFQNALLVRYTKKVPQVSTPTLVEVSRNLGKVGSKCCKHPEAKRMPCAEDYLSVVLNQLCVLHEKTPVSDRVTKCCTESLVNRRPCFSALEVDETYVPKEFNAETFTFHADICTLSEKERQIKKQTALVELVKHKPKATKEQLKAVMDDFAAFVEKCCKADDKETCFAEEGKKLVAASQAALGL
Protocol: For the determination of human serum albumin (HSA) binding, a Chiralpak HSA column (50×3 mm, 5 μm, H13H-2433) was used at a constant flow rate of 0.5 mL/min. The mobile phase composed of a 50 mM NH4OAc solution in water with pH=7 (solvent C) and isopropanol (solvent D) was freshly prepared for each experiment and used only once. The reference substances (Table 1) as well as the analyzed SiFA-PSMA ligands were dissolved in a mixture of solvent C/solvent D (1:1, v/v, 0.5 mg/mL) and eluted from the HSA column (0-3 min: 100% C, 3-20 min: 20% D in C, λ=254 nm). The column was kept at rt and each run was stopped after detection of the signal to reduce the acquisition time. The nine reference substances display an HSA binding range of 13% to 99% and were injected consecutively in order to establish a sigmoidal calibration curve with the software OriginPro 2018b (FIG. 1).

[4] = target: PSMA (Homo sapiens, UniProt Q04609); test: IC50 determination: PSMA binding affinity, competition with [125I]XII on LNCaP cells
Chain of PSMA (Q04609 whole entry): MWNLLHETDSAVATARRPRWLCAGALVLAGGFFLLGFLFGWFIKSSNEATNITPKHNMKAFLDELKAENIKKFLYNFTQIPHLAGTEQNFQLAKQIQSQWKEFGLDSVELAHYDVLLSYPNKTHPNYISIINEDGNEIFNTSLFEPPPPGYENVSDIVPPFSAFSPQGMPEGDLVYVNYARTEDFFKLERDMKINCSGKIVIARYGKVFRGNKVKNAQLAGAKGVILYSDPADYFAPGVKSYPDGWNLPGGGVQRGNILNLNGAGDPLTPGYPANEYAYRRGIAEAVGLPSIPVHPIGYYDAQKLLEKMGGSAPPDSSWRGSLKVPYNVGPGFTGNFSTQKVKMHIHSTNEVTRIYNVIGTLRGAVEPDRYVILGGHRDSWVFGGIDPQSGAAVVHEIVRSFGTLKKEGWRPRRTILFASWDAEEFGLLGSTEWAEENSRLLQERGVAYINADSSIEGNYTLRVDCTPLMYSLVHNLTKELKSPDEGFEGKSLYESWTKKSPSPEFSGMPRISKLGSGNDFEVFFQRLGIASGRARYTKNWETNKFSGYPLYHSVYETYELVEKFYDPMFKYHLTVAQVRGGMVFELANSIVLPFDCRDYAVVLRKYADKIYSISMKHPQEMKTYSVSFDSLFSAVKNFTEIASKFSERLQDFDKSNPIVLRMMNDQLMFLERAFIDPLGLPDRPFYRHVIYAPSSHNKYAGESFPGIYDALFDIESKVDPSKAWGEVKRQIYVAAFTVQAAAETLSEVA
Protocol: LNCaP cells were grown in Dulbecco's Modified Eagle Medium/Nutrient Mixture F-12 (DMEM/F-12, add. 10% fetal calf serum (FCS), v/v) and maintained at 37° C. in a humidified 5% CO2 atmosphere. […] After removal of the culture medium, LNCaP cells were treated with HBSS (add. 1% BSA, v/v, 4° C., 500 μL) and subsequently left 15 min on ice for equilibration in HBSS (add. 1% BSA, v/v, 4° C., 200 μL). […] For the control series, HBSS (add. 1% BSA, v/v, 25 μL) was used instead of the SiFA-PSMA ligand solution. Each concentration and the control were prepared in triplicate. After 1 h incubation on ice, the assay medium was removed and cells were washed with HBSS (200 μL, 4° C.). […] NaOH (200 μL) for at least 10 min and the resulting cell lysate was removed. The wells were treated again with 1 M aq. […] The experiment was repeated for at least three times and the IC50 value calculated using the GraphPad PRISM 8.0.2 software (Graphpad Software Inc., La Jolla, United States).

[5] = LNCaP cells (150.000 cells/well), reference [125I]XII c = 0.2 nM, 1 h, 4° C., HBSS add. 1% BSA, mean ± SD (n = 3)

CC(C)(C)[Si](F)(c1ccc(C(=O)NC[C@@H](NC(=O)[C@@H](CN)NC(=O)[C@@H](CCC(=O)O)NC(=O)[C@H](N)CCC(=O)O)C(=O)N[C@H](CCCCNC(=O)CCC(=O)NCCC[C@@H](NC(=O)CC[C@H](NC(=O)N[C@@H](CCC(=O)O)C(=O)O)C(=O)O)C(=O)O)C(=O)O)cc1)C(C)(C)C [SiFA-PSMA ligand 03 d] (H-[dE][dE][dDap][dDap](Benzoyl(4-SiFtBu2))[dK]([Suc-X1])-OH)
logD7.4 [1]: −3.42 ± 0.05
Internalization [2]: 171.82 ± 9.57%
Binding to HSA [3]: 97.2%
IC50 [4, 5]: 9.1 ± 0.8 nM

CC(C)(C)[Si](F)(c1ccc(C(=O)NC[C@@H](NC(=O)[C@@H](Cc2ccccc2)NC(=O)[C@@H](CCC(=O)O)NC(=O)[C@H](N)CCC(=O)O)C(=O)N[C@H](CCCCNC(=O)CCC(=O)NCCC[C@@H](NC(=O)CC[C@H](NC(=O)N[C@@H](CCC(=O)O)C(=O)O)C(=O)O)C(=O)O)C(=O)O)cc1)C(C)(C)C [SiFA-PSMA ligand 03 i] (H-[dE][dE][dF][dDap](Benzoyl(4-SiFtBu2))[dK]([Suc-X1])-OH)
logD7.4 [1]: −2.30 ± 0.03
Internalization [2]: 50.33 ± 2.97%
Binding to HSA [3]: 98.9%
IC50 [4, 5]: 20.6 ± 1.8 nM

CC(C)(C)[Si](F)(c1ccc(C(=O)NC[C@@H](NC(=O)CNC(=O)CC[C@H](NC(=O)N[C@@H](CCC(=O)O)C(=O)O)C(=O)O)C(=O)N[C@H](CCCCNC(=O)CCC(=O)NCCC[C@@H](NC(=O)CC[C@H](NC(=O)N[C@@H](CCC(=O)O)C(=O)O)C(=O)O)C(=O)O)C(=O)O)cc1)C(C)(C)C [SiFA-PSMA ligand 01 i]
logD7.4 [1]: −3.96 ± 0.04
Internalization [2]: 160.83 ± 2.72%
Binding to HSA [3]: 98.9%
IC50 [4, 5]: 8.8 ± 1.7 nM

CC(C)(C)[Si](F)(c1ccc(C(=O)N[C@H](CC(=O)N[C@H](CCCCNC(=O)CCC(=O)NCCC[C@@H](NC(=O)CC[C@H](NC(=O)N[C@@H](CCC(=O)O)C(=O)O)C(=O)O)C(=O)O)C(=O)O)C(=O)N[C@H](CCCCNC(=O)CCC(=O)NCCC[C@@H](NC(=O)CC[C@H](NC(=O)N[C@@H](CCC(=O)O)C(=O)O)C(=O)O)C(=O)O)C(=O)O)cc1)C(C)(C)C [SiFA-PSMA ligand 06]
logD7.4 [1]: −3.77 ± 0.04
Internalization [2]: 270.03 ± 16.10%
Binding to HSA [3]: ≥98.9%
IC50 [4]: 7.4 ± 1.9 nM

CC(C)(C)[Si](F)(c1ccc(C(=O)NC[C@@H](NC(=O)CNC(=O)CNC(=O)CNC(=O)CC[C@H](NC(=O)N[C@@H](CCC(=O)O)C(=O)O)C(=O)O)C(=O)N[C@H](CCCCNC(=O)CCC(=O)NCCC[C@@H](NC(=O)CC[C@H](NC(=O)N[C@@H](CCC(=O)O)C(=O)O)C(=O)O)C(=O)O)C(=O)O)cc1)C(C)(C)C [SiFA-PSMA ligand 02 e] ({Glu-CO-γGlu}-GGG[dDap](Benzoyl(4-SiFtBu2))[dK]([Suc-X1])-OH)
logD7.4 [1]: −3.50 ± 0.04
Internalization [2]: 190.26 ± 16.87%
Binding to HSA [3]: ≥98.9%
IC50 [4]: 9 ± 2.2 nM

CC(C)(C)[Si](F)(c1ccc(C(=O)NC[C@@H](NC(=O)[C@@H](CCC(=O)O)NC(=O)[C@@H](CCC(=O)O)NC(=O)[C@H](N)CCC(=O)O)C(=O)N[C@H](CCCCNC(=O)CCC(=O)NCCC[C@@H](NC(=O)CC[C@H](NC(=O)N[C@@H](CCC(=O)O)C(=O)O)C(=O)O)C(=O)O)C(=O)O)cc1)C(C)(C)C [SiFA-PSMA ligand 03 b] (H-[dE][dE][dE][dDap](Benzoyl(4-SiFtBu2))[dK]([Suc-X1])-OH)
logD7.4 [1]: −3.85 ± 0.04
Internalization [2]: 135.78 ± 5.50%
Binding to HSA [3]: 98.9%
IC50 [4, 5]: 8.8 ± 1 nM

CC(C)(C)[Si](F)(c1ccc(C(=O)NC[C@@H](NC(=O)[C@@H](CCCNC(N)=O)NC(=O)[C@@H](CCC(=O)O)NC(=O)[C@H](N)CCC(=O)O)C(=O)N[C@H](CCCCNC(=O)CCC(=O)NCCC[C@@H](NC(=O)CC[C@H](NC(=O)N[C@@H](CCC(=O)O)C(=O)O)C(=O)O)C(=O)O)C(=O)O)cc1)C(C)(C)C [SiFA-PSMA ligand 03 c] (H-[dE][dE][dCit][dDap](Benzoyl(4-SiFtBu2))[dK]([Suc-X1])-OH)
logD7.4 [1]: −3.31 ± 0.02
Internalization [2]: 87.55 ± 2.28%
Binding to HSA [3]: 98.6%
IC50 [4, 5]: 11.7 ± 1.5 nM

CC(C)(C)[Si](F)(c1ccc(C(=O)NC[C@@H](NC(=O)[C@@H](CCCN)NC(=O)CC[C@H](NC(=O)N[C@@H](CCC(=O)O)C(=O)O)C(=O)O)C(=O)N[C@H](CCCCNC(=O)CCC(=O)NCCC[C@@H](NC(=O)CC[C@H](NC(=O)N[C@@H](CCC(=O)O)C(=O)O)C(=O)O)C(=O)O)C(=O)O)cc1)C(C)(C)C [SiFA-PSMA ligand 01 f]
logD7.4 [1]: −3.65 ± 0.09
Internalization [2]: 123.13 ± 2.14%
Binding to HSA [3]: 98.9%
IC50 [4, 5]: 8.3 ± 1.5 nM

C[C@H](O)[C@@H](NC(=O)CC[C@H](NC(=O)N[C@@H](CCC(=O)O)C(=O)O)C(=O)O)C(=O)N[C@H](CNC(=O)c1ccc([Si](F)(C(C)(C)C)C(C)(C)C)cc1)C(=O)N[C@H](CCCCNC(=O)CCC(=O)NCCC[C@@H](NC(=O)CC[C@H](NC(=O)N[C@@H](CCC(=O)O)C(=O)O)C(=O)O)C(=O)O)C(=O)O [SiFA-PSMA ligand 01 j]
logD7.4 [1]: −3.86 ± 0.07
Internalization [2]: 120.83 ± 0.92%
Binding to HSA [3]: ≥98.9%
IC50 [4, 5]: 9.2 ± 1.2 nM

CC(C)(C)[Si](F)(c1ccc(C(=O)NC[C@@H](NC(=O)[C@@H](Cc2ccccc2)NC(=O)CC[C@H](NC(=O)N[C@@H](CCC(=O)O)C(=O)O)C(=O)O)C(=O)N[C@H](CCCCNC(=O)CCC(=O)NCCC[C@@H](NC(=O)CC[C@H](NC(=O)N[C@@H](CCC(=O)O)C(=O)O)C(=O)O)C(=O)O)C(=O)O)cc1)C(C)(C)C [SiFA-PSMA ligand 01 k]
logD7.4 [1]: −2.99 ± 0.02
Internalization [2]: 61.61 ± 1.33%
Binding to HSA [3]: ≥98.9%
IC50 [4, 5]: 29.4 ± 0.6 nM

CC(C)(C)[Si](F)(c1ccc(C(=O)NC[C@@H](NC(=O)[C@H](N)CNC(=O)[C@@H](CCC(=O)O)NC(=O)[C@H](N)CCC(=O)O)C(=O)N[C@H](CCCCNC(=O)CCC(=O)NCCC[C@@H](NC(=O)CC[C@H](NC(=O)N[C@@H](CCC(=O)O)C(=O)O)C(=O)O)C(=O)O)C(=O)O)cc1)C(C)(C)C [SiFA-PSMA ligand 04]
logD7.4 [1]: −3.33 ± 0.11
Internalization [2]: 124.49 ± 2.61%
Binding to HSA [3]: 97.9%
IC50 [4]: 12.2 ± 1.9 nM

CC(C)(C)[Si](F)(c1ccc(C(=O)N[C@H](CC(=O)N[C@H](CC(=O)NCCC[C@@H](NC(=O)c2cc(C(=O)O)cc(C(=O)O)c2)C(=O)NCCCC[C@@H](NC(=O)CC[C@H](NC(=O)N[C@@H](CCC(=O)O)C(=O)O)C(=O)O)C(=O)O)C(=O)O)C(=O)N[C@H](CC(=O)NCCC[C@@H](NC(=O)c2cc(C(=O)O)cc(C(=O)O)c2)C(=O)NCCCC[C@@H](NC(=O)CC[C@H](NC(=O)N[C@@H](CCC(=O)O)C(=O)O)C(=O)O)C(=O)O)C(=O)O)cc1)C(C)(C)C [SiFA-PSMA ligand 07]
logD7.4 [1]: −3.45 ± 0.01
Internalization [2]: 311.75 ± 7.30%
IC50 [4]: 5.5 ± 0.6 nM
